Assay: Hydrolytic stability: hydrolysis of the 19F fluorosilane to the silanol at physiological pH (7.0)
Type: physicochemical
Conditions: hydrolytic halflife of the 19F compound at pH 7.0, calculated from the kinetics
Protocol: The time dependent degree of hydrolysis of compounds of formula I in which X is a fluorine atom of isotope 19 to compounds of formula I in which X is a hydroxy group was determined at physiological pH (7.0). From the kinetics the hydrolytic halflife (t1/2) measured in hours [h] of compounds of formula I in which X is a fluorine atom of isotope 19 were calculated (Table 1, column 2).
The ratio of the hydrolytic halflifes of compounds of formula I in which X is a fluorine atom of isotope 19 and the radioactive halflife of the 18-F isotope (1.83 hours) is defined as relative stability (Table 1, column 3).
After 6 hours 90% of the 18-F isotope have been decayed.
Compounds of formula I in which X is a fluorine atom of isotope 18 are considered as useful for PET applications if the relative stability of their analogs bearing a fluorine atom of isotope 19 exceed a factor of four and if at least 50% of these compounds remain intact after 6 hours under hydrolytic conditions at pH 7.

Compound	t1/2 [h]
CC(C)[Si](F)(c1cccc(CCCOC2CCCCO2)c1)C(C)C (racemic) [Compound 3d - F, (RS)-Fluoro-diisopropyl-{3-[3-(tetrahydro-pyran-2-yloxy)-propyl]-phenyl}-silane]	> 100.0
CC(C)[Si](F)(c1cccc(CCOC2CCCCO2)c1)C(C)C (racemic) [Compound 3e - F, (RS)-Fluoro-diisopropyl-{3-[2-(tetrahydro-pyran-2-yloxy)-ethyl]-phenyl}-silane]	> 100.0
F[Si](c1ccccc1)(c1ccccc1)c1ccc(CCOC2CCCCO2)cc1 (racemic) [Compound 3f-F, (RS)-Fluoro-diphenyl-{4-[2-(tetrahydro-pyran-2-yloxy)-ethyl]-phenyl}-silane]	0.07
CC(C)C[Si](F)(CC(C)C)c1ccc(COC2CCCCO2)cc1 (racemic) [Compound 3g-F, (RS)-Fluoro-diisobutyl-[4-(tetrahydro-pyran-2-yloxymethyl)-phenyl]-silane]	8.1
CC(C)[Si](F)(c1ccc(CCCO)cc1)C(C)C [Compound 4c - F, 3-[4-(Fluoro-diisopropyl-silanyl)-phenyl]-propan-1-ol]	> 100.0
CC(C)[Si](F)(c1ccc(CCC(=O)O)cc1)C(C)C [Compound 5c - F, 3-[4-(Fluoro-diisopropyl-silanyl)-phenyl]-propionic acid]	59.0
CC(C)[Si](F)(c1cccc(CC(=O)O)c1)C(C)C [Compound 5e - F, [3-(Fluoro-diisopropyl-silanyl)-phenyl]-acetic acid]	20.0
CC(C)C[Si](F)(CC(C)C)c1ccc(C(=O)O)cc1 [Compound 5g-F, 4-(Fluoro-diisobutyl-silanyl)-benzoic acid]	3.5
CC(C)C[Si](F)(CC(C)C)c1ccc(CC(=O)O)cc1 [Compound 5h-F, [4-(Fluoro-diisobutyl-silanyl)-phenyl]-acetic acid]	8.7

— patent publication EP1970064A1, “Silicon-derivatives for pet-imaging” (Bayer Schering Pharma Aktiengesellschaft, priority 2007, dated 2008)
